Results on seven compounds are retold here after publication PMC6798786 (Brain Communications, 2019).

Test [1] deals with T1, human 5-HT2AR (Homo sapiens, UniProt P28223). Description: radioligand binding (NIMH PDSP). Particulars: recombinant, stably expressed human receptor; clemizole analogues. As for the experimental part:
(§1) All in vitro binding assay and Ki data studies were performed by the US National Institute of Mental Health Psychoactive Drug Screening Program (NIMH PDSP). For these studies, drugs were screened against recombinant, stably expressed human 5-HT2AR, 5-HT2BR, 5-HT2CR and H1, as described at https://pdspdb.unc.edu/pdspWeb/ ([Besnard et al., 2012]).

In test [2] the target is T2, human 5-HT2BR (Homo sapiens, UniProt P41595). Kind of test: radioligand binding (NIMH PDSP). To be noted: read-out: Ki 5-HT2BR. The procedure:
as §1

Test [3] concerns the target T3, human 5-HT2CR (Homo sapiens, UniProt P28335).
T3 sequence (P28335 33-458): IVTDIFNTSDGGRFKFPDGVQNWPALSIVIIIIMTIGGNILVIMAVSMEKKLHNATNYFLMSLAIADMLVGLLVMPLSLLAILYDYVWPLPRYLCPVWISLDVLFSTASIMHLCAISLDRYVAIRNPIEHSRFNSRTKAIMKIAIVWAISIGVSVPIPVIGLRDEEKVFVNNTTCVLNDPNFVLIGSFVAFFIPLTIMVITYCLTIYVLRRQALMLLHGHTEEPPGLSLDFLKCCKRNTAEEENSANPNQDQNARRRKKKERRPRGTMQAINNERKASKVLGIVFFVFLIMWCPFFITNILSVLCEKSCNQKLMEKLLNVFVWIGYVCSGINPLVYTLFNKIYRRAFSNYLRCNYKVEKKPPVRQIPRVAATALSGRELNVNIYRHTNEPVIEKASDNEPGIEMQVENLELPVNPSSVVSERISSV
Description: radioligand binding (NIMH PDSP). To be noted: recombinant, stably expressed human receptor; clemizole analogues. As for the experimental part:
as §1

In test [4] the target is human H1 (Homo sapiens, UniProt P35367). Description: radioligand binding (NIMH PDSP). To be noted: read-out: Ki H1. As for the experimental part:
as §1

Test [5] concerns human 5-HT2R. Kind of test: radioligand binding (NIMH PDSP), any 5-HT2R subtype. Particulars: 5-HT2AR, 5-HT2BR, 5-HT2CR. As for the experimental part:
as §1
Additionally, 5-HT2R modulating compounds exert antiepileptic activity in both preclinical ([Sourbron et al., 2016]; [Griffin et al., 2017]) and clinical studies ([Griffin et al., 2017]; [Schoonjans et al., 2017]; [Kauppila et al., 2018]). […] […].

Test [6] relates to scn1lab mutant zebrafish. Kind of test: locomotion (mean swim velocity) seizure-like behaviour assay in scn1lab mutant zebrafish larvae. Type of test: in vivo, Danio rerio. Particulars: for effect on seizure-like swim behaviour, commercially available compounds: three concentrations; for effect on seizure-like swim behaviour, commercially available compounds / effect on seizure-like swim behaviour, retest of independently synthesized compound: 30 and 90 min exposure; for change in vivo at 100 µM / change in vivo at 250 µM: Danio rerio; for effect on seizure-like swim behaviour, initial library screen: 100 µM or 250 µM, UCSF-synthesized compound; for effect on seizure-like swim behaviour, retest of independently synthesized compound: 10, 50, 100 and 250 µM. The procedure:
For locomotion studies, zebrafish larvae (5 days post-fertilization) were placed into a single well of a clear flat-bottomed 96-well microplate containing embryo media. Sex determination is not possible at this stage of development. All drug screening experiments were conducted in an unbiased manner by investigators blinded to the test compounds and all files coded for post hoc analysis. The 96-well plate containing larvae was then placed inside a DanioVision box where they were allowed to acclimate (20 min; room temperature). EthoVision XT software (DanioVision, Noldus Information Technology) was used to obtain locomotion plots (10 min in duration). Seizure scoring was performed, as described ([Baraban et al., 2005]). All locomotion plots were analysed for distance travelled (in millimetres) and mean velocity (in millimetres per second). After 90 min of drug exposure larvae were examined for toxic side-effects. Compounds that decreased or stopped the larva heartbeat, or reduced or eliminated the escape response when touched, were considered toxic.
For behaviour analysis, the threshold for a change in mean swim velocity ≥40% is considered significant (>1.5× SD of 250 control treated scn1lab). Unless otherwise indicated, all data in this manuscript are presented as the mean ± standard error of the mean. […] Statistically significant differences are indicated with asterisks (*P < 0.05; **P < 0.01; ***P < 0.001). […]

In test [7] the test system is scn1lab mutant zebrafish. Description: local field potential (LFP) electrophysiology, electrographic seizure events. The class given is in vivo, Danio rerio. To be noted: for effect on electrographic seizure activity (LFP): 100 µM. The procedure:
Using a glass micro-electrode positioned under an upright microscope, local field potential (LFP) recordings were obtained from forebrain or optic tectum structures, as described ([Baraban et al., 2005]). Agarose-embedded LFP recording sessions (10 min in duration) were obtained using Axoclamp software (Molecular Devices; Sunnyvale, CA, USA) and sampled at 1 kHz. Epileptiform events were identified post hoc. These were classified as multi-spike or poly-spike upward or downward membrane deflections greater than 3× baseline noise level and 150–250 ms in duration (interictal-like) or greater than 5× baseline noise, multi-spike and >500 ms in duration (ictal-like); both events were counted using threshold detection settings in Clampfit (Molecular Devices; Sunnyvale, CA, USA). Agarose-embedded larvae were continuously monitored for blood flow and heart rate using an Axiocam digital camera at video frame rate.
Monitoring electrographic brain activity to confirm seizure suppression is an essential assay to eliminate false positives from behavioural testing ([Griffin et al., 2018]). By placing a micro-electrode into a visually identified brain region of an agar-immobilized zebrafish larval, stable LFP recordings can be monitored for several hours ([Baraban, 2013]). At 5 days post-fertilization, LFP recordings of scn1Lab zebrafish larvae show an average of 250 abnormal electrographic seizure events during a 10 min recording epoch.

The target of test [8] is T1, human 5-HT2AR. Particulars: cited from earlier work.
The target of test [9] is 5-HT1A. To be noted: known drugs of Table 1; reference not given; cited from earlier work.
Test [10] concerns the target 5-HT7. To be noted: known drugs of Table 1; reference not given; cited from earlier work.
Test [11] addresses 5-HT transporter. To be noted: known drugs of Table 1; reference not given; cited from earlier work.
Test [12] addresses T2, human 5-HT2BR. Particulars: commercially available compounds known to bind 5-HT2BR; ref Roth et al., 2000; read-out: 5-HT2BR (nM), Table S3; cited from earlier work.
Test [13] concerns the target T3, human 5-HT2CR. To be noted: commercially available compounds known to bind 5-HT2BR; ref Roth et al., 2000; read-out: 5-HT2CR (nM), Table S3; cited from earlier work.
The mark [14] stands for this setting: recombinant, stably expressed human receptor, clemizole analogues.
Where [15] appears, read: read-out: % change in velocity, individual larva 1 (heat map).
[16] abbreviates: read-out: % change in velocity, individual larva 2 (heat map).
Setting [17] is: read-out: % change in velocity, individual larva 3 (heat map).
[18] abbreviates: read-out: % change in velocity, individual larva 4 (heat map).
Where [19] appears, read: read-out: % change in velocity, individual larva 5 (heat map).
[20] abbreviates: read-out: % change in velocity, individual larva 6 (heat map).
[21] abbreviates: read-out: mean velocity change from six fish, Trial 1.
Where [22] appears, read: read-out: mean velocity change from six fish, Trial 2.

“Also recorded” adds a separate entry of the source. Like-named read-outs stand apart in the source and are kept apart here.

Sequence of human H1 (P35367 whole entry): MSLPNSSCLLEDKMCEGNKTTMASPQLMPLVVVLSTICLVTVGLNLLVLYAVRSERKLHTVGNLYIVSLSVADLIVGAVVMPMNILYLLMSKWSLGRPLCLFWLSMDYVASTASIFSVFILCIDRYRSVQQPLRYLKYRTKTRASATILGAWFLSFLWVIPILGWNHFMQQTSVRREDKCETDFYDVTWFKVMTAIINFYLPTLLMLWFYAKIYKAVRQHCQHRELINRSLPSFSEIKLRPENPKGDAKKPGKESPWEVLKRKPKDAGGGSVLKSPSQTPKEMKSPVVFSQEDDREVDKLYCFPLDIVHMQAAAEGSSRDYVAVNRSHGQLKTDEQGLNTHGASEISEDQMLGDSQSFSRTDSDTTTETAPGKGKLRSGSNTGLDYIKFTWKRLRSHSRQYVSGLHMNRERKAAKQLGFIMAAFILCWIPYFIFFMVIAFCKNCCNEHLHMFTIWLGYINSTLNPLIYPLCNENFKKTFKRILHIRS
T2 sequence (P41595 whole entry): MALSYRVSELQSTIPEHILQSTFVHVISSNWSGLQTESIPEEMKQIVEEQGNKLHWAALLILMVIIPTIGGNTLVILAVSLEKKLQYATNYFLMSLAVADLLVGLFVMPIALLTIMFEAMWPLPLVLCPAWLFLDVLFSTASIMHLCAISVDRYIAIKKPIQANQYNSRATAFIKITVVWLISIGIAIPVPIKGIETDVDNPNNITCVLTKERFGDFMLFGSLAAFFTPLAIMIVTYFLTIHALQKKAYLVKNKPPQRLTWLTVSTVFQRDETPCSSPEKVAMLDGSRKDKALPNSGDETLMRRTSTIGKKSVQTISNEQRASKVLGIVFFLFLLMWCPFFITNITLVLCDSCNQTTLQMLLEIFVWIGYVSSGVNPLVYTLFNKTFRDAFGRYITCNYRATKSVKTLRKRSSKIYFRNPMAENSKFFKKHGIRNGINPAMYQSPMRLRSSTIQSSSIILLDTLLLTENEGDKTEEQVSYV
T1 sequence (P28223 whole entry): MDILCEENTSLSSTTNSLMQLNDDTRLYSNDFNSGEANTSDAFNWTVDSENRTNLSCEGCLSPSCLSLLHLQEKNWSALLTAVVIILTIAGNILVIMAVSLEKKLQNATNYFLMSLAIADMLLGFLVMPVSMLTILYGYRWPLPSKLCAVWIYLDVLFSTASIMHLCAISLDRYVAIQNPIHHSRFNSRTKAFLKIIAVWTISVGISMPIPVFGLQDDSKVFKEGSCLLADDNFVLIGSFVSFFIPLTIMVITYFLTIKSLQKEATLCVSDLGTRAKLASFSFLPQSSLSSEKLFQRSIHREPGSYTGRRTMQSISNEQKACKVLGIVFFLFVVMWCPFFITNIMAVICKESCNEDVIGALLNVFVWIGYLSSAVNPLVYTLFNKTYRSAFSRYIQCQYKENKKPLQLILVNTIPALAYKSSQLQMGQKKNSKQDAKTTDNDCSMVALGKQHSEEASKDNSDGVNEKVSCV

For the compound `FC1(F)CCC(Cn2c(CN3CCCC3)nc3ccccc32)CC1` [Compound 17], the Ki in [1] was over 10 µM; in [2] (setting [14]), over 10 µM; in test [3], over 10 µM; in test [4] (setting [14]), 0.137 µM. Moreover, the “binding to any human 5-HT2R” value in test [5] was “no significant binding”.

Take `c1ccc2c(c1)nc(CN1CCCC1)n2CC1CCOCC1` [Compound 15]: the Ki is over 10 µM in test [1], over 10 µM in test [2] (setting [14]), over 10 µM in test [3] and 0.865 µM in test [4] (setting [14]). Moreover, in test [5], the “binding to any human 5-HT2R” value is “no significant binding”.

On to `CC(N)Cc1ccc2ccoc2c1` (centres unmarked) [Compound 6-APB, 6-(2-aminopropyl)benzofuran], for which, in [6], the “effect on seizure-like swim behaviour, commercially available compounds” value was “suppressed convulsive swim behaviours in a concentration-dependent manner”. In [7] (250 µM, 10 min recording epoch), the “effect on frequency of electrographic seizure events (LFP)” value is reported as “significantly suppressed the frequency of electrographic seizure events”. For the same compound, the Ki in [8] (known drugs of Table 1, reference not given, read-out: Ki 5-HT2A, Table 1 known drugs) was 1930 nM; in test [9] it was 1.28 µM; in test [10], 0.155 µM; in [11], 2.7 µM.

Regarding `c1cn(CC2CCCCC2)c(CN2CCCC2)n1` [Compound 21], the change in vivo at 100 µM in [6] (setting [15]) was 17.5%; in test [6] (setting [16]), -5.2%; in test [6] (setting [17]), 11.1%; in test [6] (setting [18]), 8.5%; in [6] (setting [19]) it was 13.2%; in [6] (setting [20]) it was 24%. For the same compound, the change in vivo at 100 µM in test [6] (setting [21]) and in test [6] (setting [22]) was 12.5% each time. The change in vivo at 250 µM in test [6] (setting [15]) was 52.2%; in [6] (setting [16]) it was -11.5%; in [6] (setting [17]), 80.9%; in [6] (setting [18]), -44.9%; in test [6] (setting [19]), 37.8%; in test [6] (setting [20]) it was -14.2%. Also, the change in vivo at 250 µM in test [6] (setting [21]) and in [6] (setting [22]) was 6.5% throughout. In addition, in [5], the “binding to any human 5-HT2R” value is on record as “no significant binding”.

Regarding `FC(F)(F)c1ccc(Cn2c(CN3CCCC3)nc3ccccc32)cc1` [Compound 6], the “effect on seizure-like swim behaviour, initial library screen” value in [6] was “effective in suppressing”. Also, the “effect on seizure-like swim behaviour, retest of independently synthesized compound” value in test [6] was “reduced the high-velocity seizure-like swim behaviour”. Besides, the change in vivo at 100 µM in test [6] (setting [15]) is -34.5%; in [6] (setting [16]), 38.1%; in test [6] (setting [17]), -51.3%; in test [6] (setting [18]) it was 10%; in test [6] (setting [19]), -75.4%; in [6] (setting [20]), -79.2%. Further, the change in vivo at 100 µM in [6] (setting [21]) was -40%; in test [6] (setting [22]), -76.2%. Further, the change in vivo at 250 µM in [6] (setting [15]) was -100%; in test [6] (setting [16]), -91.9%; in [6] (setting [17]), -100%; in test [6] (setting [18]) it was -100%; in test [6] (setting [19]), -79.3%; in test [6] (setting [20]) it was -92.7%. For the same compound, the change in vivo at 250 µM is -94.7% in test [6] (setting [21]) and -90.5% in test [6] (setting [22]). Moreover, in test [7] (10 min recording epoch), the “effect on electrographic seizure activity (LFP)” value is recorded as “significant suppression of electrographic seizure activity”. Also, the Ki worked out at 0.285 µM in test [2] and 0.016 µM in [4].

For `CC(N)Cc1cccc(C(F)(F)F)c1.Cl` (single isomer, unassigned; (+)) [norfenfluramine, (+)-Norfenfluramine hydrochloride, reference compound], the “effect on seizure-like swim behaviour, commercially available compounds” value in test [6] is on record as “suppressed convulsive swim behaviours in a concentration-dependent manner; also recorded: restore the swimming behaviour or scn1lab mutant larvae to wild-type levels”. The “larvae with reduced spontaneous seizure events (LFP)” value in test [7] (n = 8) is 5 out of 8. For the same compound, the Ki is 194 nM in test [8] (read-out: 5-HT2AR (nM), Table S3); 18 nM in [12]; 306 nM in test [13].

Turning to `c1ccc2c(c1)nc(CN1CCCC1)n2CC1CCCC1` [Compound 20], in [6], the “effect on seizure-like swim behaviour, initial library screen” value is on record as “effective in suppressing”. The “effect on seizure-like swim behaviour, retest of independently synthesized compound” value in [6] is given as “reduced the high-velocity seizure-like swim behaviour”. Moreover, the change in vivo at 100 µM was 17.3% in test [6] (setting [15]); -4.1% in test [6] (setting [16]); -27.1% in test [6] (setting [17]); -14.1% in [6] (setting [18]); -25.2% in test [6] (setting [19]); -48.1% in test [6] (setting [20]). Further, the change in vivo at 100 µM in [6] (setting [21]) and in test [6] (setting [22]) was -15.6% each time. In addition, the change in vivo at 250 µM in test [6] (setting [15]) was -62.7%; in test [6] (setting [16]), -80.4%; in test [6] (setting [17]), -65.9%; in test [6] (setting [18]), -100%; in test [6] (setting [19]), -60.9%; in test [6] (setting [20]) it was -9.7%. Moreover, the change in vivo at 250 µM in test [6] (setting [21]) and in test [6] (setting [22]) was -66.1% throughout. For the same compound, the “effect on electrographic seizure activity (LFP)” value in test [7] (10 min recording epoch) is recorded as “significant suppression of electrographic seizure activity”. Also, the Ki in test [2] was 0.772 µM; in test [4] it was 0.161 µM.
